For twelve molecules, TGI and GI50 results are on record in PubChem BioAssay (NCI).

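Exposure lasted 48 hours, with cells grown in 96-well plates and compounds tested at five concentrations. Here, GI50 denotes the concentration required for 50% inhibition of growth. TGI denotes the concentration required for complete inhibition of growth.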

Some test systems named below: HCT-15 colon; UACC-257 melanoma; SN12C renal; SW-620 colon; T-47D breast; SNB-19 CNS; HCT-116 colon; SF-268 CNS; TK-10 renal; OVCAR-8 ovarian.
Common to all, as to assay: DTP human tumour cell line panel, 48 h

Regarding `COc1ccc2c(c1)-c1[nH]c3ccccc3c1CC2`, the TGI (as a rule, the concentration giving total growth inhibition) amounted to 29.6 µM in the assay on HCT-15 colon; 30.8 µM in the assay on UACC-257 melanoma; 29.9 µM with SN12C renal; 31.6 µM with SW-620 colon; 29.1 µM in the assay on T-47D breast; 30.9 µM with SNB-19 CNS. Also, the total growth inhibition concentration (TGI) in the assay on HCT-116 colon stood at 31.8 µM; in the assay on SF-268 CNS, 28.4 µM; in the assay with TK-10 renal it was 31.7 µM; in the assay on OVCAR-8 ovarian it was 25.1 µM.
In the case of `CC(/C=N/NC1=NCCCN1)=N\NC1=NCCCN1`, the total growth inhibition concentration (TGI) in the assay with HCT-15 colon, in the assay with UACC-257 melanoma, with SN12C renal, in the assay with SW-620 colon, in the assay on T-47D breast and in the assay with SNB-19 CNS was over 100 µM each time. Moreover, the TGI in the assay on HCT-116 colon, with SF-268 CNS, in the assay with TK-10 renal and in the assay with OVCAR-8 ovarian was over 100 µM throughout.
On to `Cc1ccc2c(=O)c(-c3n[nH]c(=S)s3)c[nH]c2n1`, for which the TGI in the assay with HCT-15 colon, in the assay with UACC-257 melanoma, in the assay with SN12C renal, in the assay with SW-620 colon, in the assay on T-47D breast and with SNB-19 CNS was over 100 µM each time. Also, the total growth inhibition concentration (TGI) in the assay on HCT-116 colon, in the assay on SF-268 CNS, with TK-10 renal and in the assay with OVCAR-8 ovarian was over 100 µM throughout.
For `COc1cc(C=O)cc(C=Nc2ccc(S(N)(=O)=O)cc2)c1O`, the TGI is over 100 µM in the assay with HCT-15 colon; 38.5 µM with UACC-257 melanoma; 35.5 µM in the assay on SN12C renal; over 100 µM with SW-620 colon; over 100 µM in the assay on T-47D breast; over 100 µM in the assay with SNB-19 CNS. Moreover, the total growth inhibition concentration (TGI) with HCT-116 colon is 94.7 µM; in the assay on SF-268 CNS it was 39.2 µM; in the assay on TK-10 renal it was over 100 µM; with OVCAR-8 ovarian, over 100 µM.
In the case of `COc1ccc(C[C@@H]2OC3(C=CC(=O)C=C3)O[C@H]2Cc2ccc(OC)cc2)cc1`, the TGI was 0.77 µM with HCT-15 colon; 3.28 µM with UACC-257 melanoma; 3.16 µM in the assay with SN12C renal; 0.383 µM in the assay with SW-620 colon; over 100 µM in the assay with T-47D breast; 5.01 µM in the assay on SNB-19 CNS. The TGI in the assay with HCT-116 colon amounted to 0.33 µM; with SF-268 CNS, 3.07 µM; with TK-10 renal it was 1.21 µM; in the assay with OVCAR-8 ovarian it was 0.645 µM.
Consider `C#CCCCC(=O)N(C(=O)CS(=O)CC)c1ccccc1` (centres undefined), for which the TGI in the assay with HCT-15 colon, with UACC-257 melanoma, in the assay with SN12C renal, with SW-620 colon, with T-47D breast and with SNB-19 CNS was over 100 µM in each case. Also, the TGI in the assay with HCT-116 colon, in the assay with SF-268 CNS, in the assay with TK-10 renal and with OVCAR-8 ovarian was over 100 µM each time.
For `COP(C)(=O)C(Cc1c[nH]c2ccccc12)NC(=O)OCc1ccccc1` (centres undefined), the concentration for total growth inhibition (TGI) in the assay with HCT-15 colon, with UACC-257 melanoma, with SN12C renal, in the assay on SW-620 colon, with T-47D breast and in the assay on SNB-19 CNS was over 100 µM each time. Moreover, the concentration for total growth inhibition (TGI) in the assay on HCT-116 colon, with SF-268 CNS, with TK-10 renal and with OVCAR-8 ovarian was over 100 µM throughout.
Consider `NCCCC[C@H](N)C(=O)Nc1ccc(-c2nc3ccccc3s2)cc1Cl`, for which the total growth inhibition concentration (TGI) is 20.5 µM with HCT-15 colon; 32.4 µM in the assay with UACC-257 melanoma; 27.7 µM in the assay on SN12C renal; 23.6 µM in the assay on SW-620 colon; 19.4 µM in the assay on T-47D breast; 32.9 µM in the assay on SNB-19 CNS. In addition, the concentration for total growth inhibition (TGI) in the assay on HCT-116 colon was 1.93 µM; in the assay on SF-268 CNS, 25.5 µM; in the assay with TK-10 renal it was 26.2 µM; in the assay with OVCAR-8 ovarian, over 43.9 µM.
`CCOC(=O)CC[C@H](N)C(=O)N[C@H](Cc1ccc(N(CCCl)CCCl)cc1)C(=O)OCC`: the TGI in the assay with HCT-15 colon is 10.6 µM; with UACC-257 melanoma, over 49.2 µM; in the assay with SN12C renal, 16.7 µM; in the assay on SW-620 colon, 14.1 µM; with T-47D breast it was 6.55 µM; in the assay on SNB-19 CNS, 99 µM. Further, the concentration for total growth inhibition (TGI) in the assay with HCT-116 colon is over 36.2 µM; in the assay with SF-268 CNS it was 11.3 µM; with TK-10 renal, 8.51 µM.
Regarding `O=C1N[C@@H](COc2ccc(C=Nc3ccc(CCc4ccc(N=Cc5ccc(OC[C@@H]6COC(=O)N6)cc5)cc4)cc3)cc2)CO1`, the TGI in the assay on HCT-15 colon, in the assay with UACC-257 melanoma, in the assay on SN12C renal, with SW-620 colon, in the assay with T-47D breast and in the assay on SNB-19 CNS was over 100 µM in each case. Besides, the concentration for total growth inhibition (TGI) in the assay with HCT-116 colon, in the assay on SF-268 CNS, in the assay on TK-10 renal and in the assay on OVCAR-8 ovarian was over 100 µM throughout.
With `CC(=O)OCC1OC(N2C(S)=C(C#N)C(c3ccco3)C(C(C)=O)=C2c2ccccc2)C(OC(C)=O)C(OC(C)=O)C1OC(C)=O` (centres undefined), the total growth inhibition concentration (TGI) in the assay on HCT-15 colon, in the assay with UACC-257 melanoma, with SN12C renal, in the assay with SW-620 colon, in the assay on T-47D breast and with SNB-19 CNS was over 100 µM each time. In addition, the concentration for total growth inhibition (TGI) in the assay with HCT-116 colon, in the assay with SF-268 CNS, in the assay with TK-10 renal and with OVCAR-8 ovarian was over 100 µM each time.
Regarding `COc1ccc2[nH]c(O)c(/C=c3/cc4c(c(-c5ccc(F)cc5)n3)=Nc3ccccc3-4)c2c1`, the GI50 (usually the concentration giving 50% growth inhibition) in the assay on HCT-15 colon is 1.91 µM; with UACC-257 melanoma, 6.77 µM; with SN12C renal, 4.19 µM; with SW-620 colon, 1.85 µM; in the assay on T-47D breast it was 2.06 µM; with SNB-19 CNS, 3.6 µM. Besides, the GI50 in the assay with HCT-116 colon was 1.67 µM; with SF-268 CNS it was 5.43 µM; in the assay with TK-10 renal it was 2.71 µM; in the assay with OVCAR-8 ovarian, 2 µM. The TGI is 4.35 µM with HCT-15 colon; 21 µM with UACC-257 melanoma; 18.8 µM with SN12C renal; 3.89 µM in the assay on SW-620 colon; 6.94 µM in the assay on T-47D breast; over 100 µM with SNB-19 CNS. Also, the TGI was found to be 3.04 µM in the assay on HCT-116 colon, 43.8 µM in the assay with SF-268 CNS, 5.32 µM in the assay with TK-10 renal and 5.01 µM in the assay on OVCAR-8 ovarian.
